{"source": "patent US20060009468A1", "about": "“Method for treatment of cancer” (priority 2004, published 2006)", "origin": "cited, not measured here", "key": {"MIA PaCa-2 cells": {"system": "MIA PaCa-2 cells", "details": "after 72 hrs of exposure"}, "PANC-1 cells": {"system": "PANC-1 cells", "details": "after 72 hrs of exposure"}}, "data": [{"molecule": "N=C(N)NOCC[C@H](N)C(=O)O", "note": "[L-canavanine, L-Canavanine]", "values": [{"measurement": "increase of the percentage of cells in the radiosensitive G2/M phase of the cell cycle, compared to untreated cells", "setting": "MIA PaCa-2 cells", "value": 4, "unit": "fold"}, {"measurement": "increase of the percentage of cells in the radiosensitive G2/M phase of the cell cycle, compared to untreated cells", "setting": "PANC-1 cells", "value": 6, "unit": "fold"}]}]}
